Data: PubChem BioAssay AID330 (DTP/NCI, 2004)
Values joined by “and” are separate entries in the source; they are usually repeats but may differ in a detail not shown here. Identical values can stand only once. Toxic doses and inconclusive results are not listed. How the source made its calls: active means survival T/C of 150% or more; inactive means T/C below 125% in these data.

Tested on: P388 leukemia ip, CD2F1 mice, survival T/C
Assay: NCI In Vivo Anticancer Drug Screen. Data for tumor model P388 Leukemia (intraperitoneal) in CD2F1 (CDF1) mice
Conditions: endpoint: median survival time, higher = longer survival
In short: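 Mice carrying the transplanted tumor received test compound or vehicle. Survival was recorded in each group, and the value is the treated-group measurement divided by that of the vehicle-treated control group.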

[1] = dose: 50.0 mg/kg/injection, schedule: Q01DX009 (ip), vehicle: saline

Measured: T/C

CN(C)c1ncnc2c1ncn2CCn1cnc2c(N(C)C)ncnc21
inactive: dose: 12.5 mg/kg/injection, schedule: Q01DX005 (ip), vehicle: Klucel (hydroxypropylcellulose) (HPC) 97 % of control | dose: 25.0 mg/kg/injection, schedule: Q01DX005 (ip), vehicle: Klucel (hydroxypropylcellulose) (HPC) 100 % of control | dose: 50.0 mg/kg/injection, schedule: Q01DX005 (ip), vehicle: Klucel (hydroxypropylcellulose) (HPC) 100 % of control and 90 % of control | dose: 100.0 mg/kg/injection, schedule: Q01DX005 (ip), vehicle: Klucel (hydroxypropylcellulose) (HPC) 90 % of control

C=CCN(CC=C)C(CC(=O)C(C)(C)C)=NCC
inactive: dose: 12.5 mg/kg/injection, schedule: Q01DX009 (ip), vehicle: saline 104 % of control | dose: 25.0 mg/kg/injection, schedule: Q01DX009 (ip), vehicle: saline 106 % of control | [1] 100 % of control and 101 % of control

C=CCC12C=C(OC)C(=O)C=C1OC(c1ccc3c(c1)OCO3)C2C (centres undefined)
inactive: dose: 16.25 mg/kg/injection, schedule: Q01DX005 (ip), vehicle: Klucel (hydroxypropylcellulose) (HPC) 104 % of control | dose: 32.5 mg/kg/injection, schedule: Q01DX005 (ip), vehicle: Klucel (hydroxypropylcellulose) (HPC) 104 % of control | dose: 65.0 mg/kg/injection, schedule: Q01DX005 (ip), vehicle: Klucel (hydroxypropylcellulose) (HPC) 94 % of control | dose: 130.0 mg/kg/injection, schedule: Q01DX005 (ip), vehicle: Klucel (hydroxypropylcellulose) (HPC) 94 % of control

CC(Nc1ccc(Cl)cc1)S(=O)(=O)O (centres undefined)
inactive: [1] 106 % of control | dose: 100.0 mg/kg/injection, schedule: Q01DX009 (ip), vehicle: saline 100 % of control | dose: 200.0 mg/kg/injection, schedule: Q01DX009 (ip), vehicle: saline 106 % of control

NC(=O)c1nc2c(Nc3ccccc3Br)nc(N)nc2nc1N
inactive: dose: 100.0 mg/kg/injection, schedule: Q01DX001 (ip), vehicle: saline 104 % of control | dose: 200.0 mg/kg/injection, schedule: Q01DX001 (ip), vehicle: saline 101 % of control | dose: 400.0 mg/kg/injection, schedule: Q01DX001 (ip), vehicle: saline 97 % of control

Cc1sc2ccccc2c(=O)c1CCl
inactive: dose: 60.0 mg/kg/injection, schedule: Q01DX005 (ip), vehicle: saline with Tween-80 111 % of control | dose: 120.0 mg/kg/injection, schedule: Q01DX005 (ip), vehicle: saline with Tween-80 104 % of control

COc1ccc(C(Cc2cc(OC)c(OC)cc2Br)NC=O)cc1OC (centres undefined)
inactive: dose: 50.0 mg/kg/injection, schedule: Q01DX005 (ip), vehicle: saline with Tween-80 89 % of control | dose: 100.0 mg/kg/injection, schedule: Q01DX005 (ip), vehicle: saline with Tween-80 90 % of control | dose: 200.0 mg/kg/injection, schedule: Q01DX005 (ip), vehicle: saline with Tween-80 91 % of control

Oc1c(Cl)cc(Cl)cc1C=Nc1cc(C(F)(F)F)ccc1N1CCc2ccccc2C1
inactive: dose: 50.0 mg/kg/injection, schedule: Q01DX009 (ip), vehicle: saline with Tween-80 98 % of control | dose: 100.0 mg/kg/injection, schedule: Q01DX009 (ip), vehicle: saline with Tween-80 95 % of control | dose: 200.0 mg/kg/injection, schedule: Q01DX009 (ip), vehicle: saline with Tween-80 96 % of control

CN1CCN(CC2C3CCC(C3)C2O)CC1 (centres undefined)
inactive: dose: 25.0 mg/kg/injection, schedule: Q01DX005 (ip), vehicle: saline 100 % of control | dose: 50.0 mg/kg/injection, schedule: Q01DX005 (ip), vehicle: saline 97 % of control | dose: 100.0 mg/kg/injection, schedule: Q01DX005 (ip), vehicle: saline 96 % of control | dose: 200.0 mg/kg/injection, schedule: Q01DX005 (ip), vehicle: saline 99 % of control
